Values joined by “and” are separate entries in the source; they are usually repeats but may differ in a detail not shown here. Equal entries are not always repeated.
How the values were obtained:
Type in all cases: physicochemical
[1] = Aspect ratio of crystals measured from microscopic images of suspension concentrate formulations; details: for Aspect ratio, mean: mean of 10 crystals, tables 5.1 to 5.4; for Crystal shape (FIGS. 3a-3d): microscopic images
Experimental: In an example the aspect ratio for crystals of fluopyram and other different active ingredients was measured from microscopic images taken from suspension concentrate formulations after crystal growth had occurred, diluted to approximately 1% in water. For the purpose of this invention the length is defined as the longest dimension and the width as the shortest dimension of a 2-dimensional image obtained in a transmission optical microscope. The aspect ratio was determine by the dividing the length by the width.

[2] = Ageing of fluopyram suspension concentrate, crystal habit; details: 500 g/L suspension concentrate, 1 month at 40 to 45° C.
Experimental: In an example 500 g/L of fluopyram crystalline active ingredient was added to a mixture of 65 g/L wetters and dispersants, 80 g/L propylene glycol, 2 g/L silicone antifoam in 432 g/L with high shear mixing (Ultra-Turrax®) to reduce the particle size D(v,0.9) to approximately 50 microns, then passed through a bead mill (Eiger® 250 Mini Motormill) to achieve a particles size D(v,0.9) typically 1 to 15 microns. Then a gel composed of 2.4 g/L xanthan and 1 g/L biocide in 117 g/L water was added with low shear mixing (stirrer).

[3] = EC formulation diluted in water and evaporated on the leaf surface, crystal habit; details: dilution at 1% in water
Experimental: In an example an EC formulation was prepared by dissolving 1 to 500 g/L of fluopyram in a mixture comprising a certain amount of emulsifiers and a certain amount of solvent.

[4] = Table 6, crystals present in suspension concentrate formulations, from tables 5.1 to 5.4

Row | SMILES | Aspect ratio [1, 4] | Aspect ratio, mean [1] | Crystal shape (FIGS. 3a-3d) [1] | Aspect ratio ([1]; single crystals, length divided by width) | Crystal appearance after ageing [2] | Crystals produced after dilution and evaporation [3]
1 | Cc1cc(C)nc(Nc2ccccc2)n1 [pyrimethanil] | 1.44 | 1.44 | cubic shaped forms |  |  | 
2 | CC(C)(C)C(O)(CCc1ccc(Cl)cc1)Cn1cncn1 (stereo not drawn) [tebuconazole] | 1.15 | 1.15 | cubic shaped forms | 1.00 and 1.20 and 1.30 and 1.02 and 1.22 and 0.83 and 1.07 and 1.44 |  | 
3 | CON=C(C(=O)OC)c1ccccc1CON=C(C)c1cccc(C(F)(F)F)c1 [trifloxystrobin] | 1.25 | 1.25 | cubic shaped forms |  |  | 
4 | O=C(NCCc1ncc(C(F)(F)F)cc1Cl)c1ccccc1C(F)(F)F [fluopyram, N-{2-[3-chloro-5-(trifluoromethyl)-2-pyridyl]ethyl}-α,α,α-trifluoro-o-tolu amide] | 12.02 | 12.02 | needle-like habit |  | needle-like appearance | needle shaped crystals
